{"source": "patent US20250236589A1", "about": "“THERAPEUTIC PHENETHYLAMINE COMPOSITIONS AND METHODS OF USE” (Cybin IRL Limited, priority 2022, published 2025)", "key": {"[1]": {"system": "Calcium Channel L-Type, Phenylalkylamine, verapamil site (rat cortex)", "assay": "Off-target screen, radioligand displacement at 10 μM", "assay_type": "binding", "settings": "antagonist radioligand"}, "[2]": {"target": "5-HT1A receptors (Homo sapiens (Human), UniProt P08908)", "assay": "5-HT1A receptor function", "assay_type": "cell-based", "procedure": "I-1 was also a potent 5-HT2 agonist, but at 10 μM, it inhibited >80% radioligand binding to nine other targets (see Table 6). […] I-1 inhibited <90% of radioligand binding to the other seven off-targets."}, "[3]": {"assay": "PK in Sprague-Dawley rats (plasma, brain, CSF)", "assay_type": "in vivo, rat", "procedure": "In another rat PK study, plasma, brain, and cerebrospinal fluid (CSF) distribution of I-1 was evaluated in Sprague-Dawley male rats after intravenous (IV) administration at 1 mg/kg. Plasma, brain, and CSF samples were collected at specified time points up to 8 hr postdose after single dose administration of I-1. Blood samples were collected via cardiac puncture and the animals were euthanized via CO2 inhalation after blood samples were collected. The CSF samples were collected via cisterna magna puncture with the brain tissue extracted after decapitation (N=4 animals per time point). The concentrations of compound I-1 in plasma, with K2EDTA as the anticoagulant, brain tissue, and CSF were determined by LC-MS/MS (LLOQ, 0.3 ng/mL). PK parameters for plasma, CSF, and brain tissue were calculated as described above."}, "[4]": {"target": "T1, human alpha2A receptor (Homo sapiens (Human), UniProt P08913)", "T1 sequence (P08913 whole entry)": "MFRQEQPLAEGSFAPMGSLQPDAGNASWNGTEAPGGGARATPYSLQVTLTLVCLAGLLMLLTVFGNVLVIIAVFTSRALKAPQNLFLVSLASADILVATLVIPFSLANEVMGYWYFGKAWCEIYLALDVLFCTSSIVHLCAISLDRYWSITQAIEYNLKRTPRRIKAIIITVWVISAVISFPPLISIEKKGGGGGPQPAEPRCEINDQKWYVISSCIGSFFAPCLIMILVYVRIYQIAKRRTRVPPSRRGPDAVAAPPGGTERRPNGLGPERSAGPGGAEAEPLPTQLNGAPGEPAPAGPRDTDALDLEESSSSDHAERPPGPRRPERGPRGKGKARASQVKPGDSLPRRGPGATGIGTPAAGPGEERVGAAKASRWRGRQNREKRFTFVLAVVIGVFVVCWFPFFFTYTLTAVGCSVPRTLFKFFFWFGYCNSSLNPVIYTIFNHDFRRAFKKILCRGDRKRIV", "assay": "alpha2A receptor function", "assay_type": "cell-based"}, "[5]": {"target": "T1, human alpha2A receptor", "assay": "alpha2A receptor binding ([3H]rauwolscine)"}, "[6]": {"target": "5-HT2A receptor (Homo sapiens (Human), UniProt P28223)", "assay": "5-HT2A radioligand binding ([125I](±)DOI)"}, "[7]": {"assay": "In vitro liver microsome stability (HLM)", "assay_type": "in vitro ADME", "settings": "human, human liver microsomes, 0.5 mg/mL microsomes, NADPH, read-out: HLM, t1/2", "procedure": "In vitro stability was determined in Human (HLM), Rat (RLM), Mouse (MsLM), and dog (DLM) Liver Microsomes. All liver microsomes were purchased from a commercial supplier (e.g. XenoTech). The reaction mixture, minus NADPH, was prepared as described below. The test compound was added into the reaction mixture at a final concentration of 1 μM or co-dosed with their deuterated analog(s) at 1 μM each. The control compound, testosterone, was run simultaneously with the test compound in a separate reaction. The reaction mixture (without cofactor) was equilibrated in a shaking water bath at 37° C. for 5 minutes. The reaction was initiated by the addition of the cofactor, and the mixture was incubated in a shaking water bath at 37° C. Aliquots (150 μL) were withdrawn at 0, 5, 10, 20, 30, 60, and 120 minutes. Test compound and testosterone samples were immediately combined with 150 μL of ice-cold acetonitrile (ACN) containing 0.1% formic acid and internal standard to terminate the reaction. The samples were then mixed and centrifuged to precipitate proteins. All samples were assayed by LC-MS/MS using electrospray ionization. […] Half-lives were calculated using GraphPad software, fitting to a single-phase exponential decay equation."}, "[8]": {"settings": "male, Sprague-Dawley, rat, CSF, IV 1 mg/kg"}, "[9]": {"settings": "male, Sprague-Dawley, rat, brain, IV 1 mg/kg"}, "[10]": {"settings": "male, Sprague-Dawley, rat, plasma, IV 1 mg/kg"}}}
{"smiles": "COc1cc(CC(C)N)c(OC)cc1I", "note": "(racemic) [DOI, (±)-2,5-dimethoxy-4-iodoamphetamine, reference compound]", "values": [{"measurement": "inhibition at 10 µM", "setting": "[1]", "result": 55.5, "unit": "% inhibition at 10 μM"}]}
{"smiles": "COc1cc(SC(F)(F)F)c(OC)cc1CCN", "note": "[Compound I-1, 2-(2,5-dimethoxy-4-((trifluoromethyl)thio)phenyl)ethan-1-amine]", "values": [{"measurement": "EC50", "setting": "[2]", "result": 88, "unit": "nM"}, {"measurement": "Tlast", "setting": "[3]; CSF, IV 1 mg/kg", "result": 6, "unit": "h"}, {"measurement": "CSF concentrations as share of brain concentrations", "setting": "[3]; IV 1 mg/kg", "result": 1.6, "unit": "%"}, {"measurement": "Tlast", "setting": "[3]; brain, IV 1 mg/kg", "result": 8, "unit": "h"}, {"measurement": "total systemic clearance relative to total hepatic blood flow", "setting": "[3]; hepatic blood flow 3.31 L/hr/kg", "result": "approximately 1.4 fold"}, {"measurement": "Kp", "setting": "[3]; male, Sprague-Dawley, rat, CSF/plasma, IV 1 mg/kg, read-out: CSF concentrations as share of plasma", "result": 0.2}, {"measurement": "AUC(0-inf)", "setting": "[3]; [8]", "result": 51.4, "unit": "ng·h/mL"}, {"measurement": "AUC(0-t)", "setting": "[3]; [8]", "result": 49.9, "unit": "ng·h/mL"}, {"measurement": "Cmax", "setting": "[3]; [8]", "result": 48.7, "unit": "ng/mL"}, {"measurement": "MRT inf", "setting": "[3]; [8]", "result": 1.51, "unit": "h"}, {"measurement": "Tmax", "setting": "[3]; [8]", "result": 0.083, "unit": "h"}, {"measurement": "half-life", "setting": "[3]; [8]", "result": 1.26, "unit": "h"}, {"measurement": "AUC(0-inf)", "setting": "[3]; [9]", "result": 3280, "unit": "ng·h/mL"}, {"measurement": "AUC(0-t)", "setting": "[3]; [9]", "result": 3220, "unit": "ng·h/mL"}, {"measurement": "Cmax", "setting": "[3]; [9]", "result": 1490, "unit": "ng/mL"}, {"measurement": "MRT inf", "setting": "[3]; [9]", "result": 1.98, "unit": "h"}, {"measurement": "Tmax", "setting": "[3]; [9]", "result": 0.25, "unit": "h"}, {"measurement": "half-life", "setting": "[3]; [9]", "result": 1.34, "unit": "h"}, {"measurement": "AUC(0-inf)", "setting": "[3]; [10]", "result": 210, "unit": "ng·h/mL"}, {"measurement": "AUC(0-t)", "setting": "[3]; [10]", "result": 207, "unit": "ng·h/mL"}, {"measurement": "C0", "setting": "[3]; [10]", "result": 330, "unit": "ng/mL"}, {"measurement": "Cmax", "setting": "[3]; [10]", "result": 250, "unit": "ng/mL"}, {"measurement": "MRT inf", "setting": "[3]; [10]", "result": 1.19, "unit": "h"}, {"measurement": "Tmax", "setting": "[3]; [10]", "result": 0.083, "unit": "h"}, {"measurement": "clearance", "setting": "[3]; [10]", "result": 79.5, "unit": "mL/min/kg"}, {"measurement": "half-life", "setting": "[3]; [10]", "result": 1.53, "unit": "h"}, {"measurement": "Vd", "setting": "[3]; male, Sprague-Dawley, rat, plasma, IV 1 mg/kg, read-out: Vss", "result": 5.67, "unit": "L/kg"}, {"measurement": "Tlast", "setting": "[3]; plasma, IV 1 mg/kg", "result": 8, "unit": "h"}, {"measurement": "volume of distribution relative to total body water", "setting": "[3]; total body water 0.7 L/kg", "result": "approximately 8.1 fold"}, {"measurement": "EC50", "setting": "[4]", "result": 165, "unit": "nM"}, {"measurement": "Ki", "setting": "[5]", "result": 66, "unit": "nM"}, {"measurement": "inhibition at 10 µM", "setting": "[6]", "result": "> 80", "unit": "%"}, {"measurement": "binding selectivity for 5-HT2A over 5-HT2B", "setting": "[6]; Ki, [125I]DOI", "result": "~19", "unit": "fold"}, {"measurement": "Ki", "setting": "[6]; radioligand [125I](±)DOI", "result": 0.35, "unit": "nM"}, {"measurement": "half-life at 1 μM", "setting": "[7]", "result": "> 2", "unit": "h"}]}
